Laboratory results reported in US20050112573A1, “Method of detecting toxic substance” (priority 2001, published 2005).

Test system: yeast genes (level of expressed mRNA)
Assay: DNA chip analysis of expressed mRNA of yeast genes after 2 h culture with a toxic chemical substance
Assay type: cell-based, Saccharomyces cerevisiae S288C
Protocol: Yeast (Saccharomyces cerevtisiae S288C (α SUC2mal mel gap2 CUP1)) were cultured at 25° C. on YPD medium (yeast extract 1%, polypepton 2%, glucose 2%). One of toxic chemical substances was added to the cell at logarithmic growth phase, and the cell was further cultured for two hours. Cell was cultured without any chemical substance in the same condition, and was used as control. Concentrations of the chemical substances were defined to inhibit the growth of the yeast but not lead to death.
After the completion of cultivation, the culture was centrifuged to collect the cells. To the cells, sodium acetate buffer (50 mM sodium acetate, 10 mM EDTA, 1% SDS) was added, and the mixture was shaken at 65° C. for five minutes, followed by returning to room temperature, and obtaining the supernatant, which procedure was repeated two times. To the supernatant, ½ amount of a solution of phenol/chloroform was added, and the mixture was centrifuged to give a supernatant, which was added with an equal amount of chloroform, and the mixture was centrifuged to give a supernatant. To the supernatant, an equal amount of isopropanol containing 0.3 M sodium acetate was added, and the mixture was allowed to stand at room temperature for 30 minutes, after which the mixture was centrifuged to give a sediment of the whole RNAs. Seventy % ethanol was added to the sediment, and the mixture was again centrifuged to give a sediment, which was then dried and dissolved in water. mRNA was isolated from the whole RNAs as followings. In view of the fact that a poly A chain is attached to the 3′ terminus of mRNA, a polynucleotide having a poly T structure which was immobilized on the surface of latex beads was used to trap the mRNA, and then the mRNA was washed and eluted with spine column (Oligotex-dT30<Super>mRNA Purification Kit, Takara). Reverse transcription of the mRNA was conducted with a reverse transcriptase (Super Script II Reverse Transcriptase; catalogue No. 18064-014, GibcoBRL) using fluorescence-labeled nucleotides to give cDNAs that were introduced with Cy3-dUTP or Cy5-dUTP during the reverse transcription.
The labeled cDNAs were dissolved in TE buffer (10 mM Tris-HCl/1 mM EDTA, pH8.0), and the solution was dropped on the DNA chip containing the whole genes of yeast (DNA Chip Research Inc. Japan) so that the cDNAs were hybridized on the DNA chip at 65° C. for over 12 hours. The fluoresces intensity of the DNA chip was read with a scanner, and the ratio relative to the fluorescence intensity resulting from the absence of chemical substance was estimated as the following, which is shown in Tables 1 to 9: [formula]
In the Tables, “Intensity” indicated in the rightmost column is a value of the level of expressed mRNA of each gene in control cells as divided by the average level of the expressions of the whole genes.

Na2As [(1)]
The level of expressed mRNA in the presence of chemical substance/ (yeast gene YNL074C, ratio to control without chemical substance, 2 h culture): 0.9 | The level of expressed mRNA in the presence of chemical substance/ (yeast gene YNL092W, ratio to control without chemical substance, 2 h culture): 1.3 | The level of expressed mRNA in the presence of chemical substance/The level of expressed mRNA in the absence of chemical substance (yeast gene YNL093W): 2.1 | The level of expressed mRNA in the presence of chemical substance/ (yeast gene YNL115C, ratio to control without chemical substance, 2 h culture): 0.7 | The level of expressed mRNA in the presence of chemical substance/ (yeast gene YNL156C, ratio to control without chemical substance, 2 h culture): 1.1 | The level of expressed mRNA in the presence of chemical substance/ (yeast gene YNL234W, ratio to control without chemical substance, 2 h culture): 1.1 | The level of expressed mRNA in the presence of chemical substance/ (yeast gene YNL281W, ratio to control without chemical): 1.0 | The level of expressed mRNA in the presence of chemical substance/ (yeast gene YNL305C, ratio to control without chemical): 0.9 | The level of expressed mRNA in the presence of chemical substance/The level of expressed mRNA in the absence of chemical substance (yeast gene YNL333W): 1.0 | The level of expressed mRNA in the presence of chemical substance/The level of expressed mRNA in the absence of chemical substance (yeast gene YNR010W): 1.3 | The level of expressed mRNA in the presence of chemical substance/ (yeast gene YNR068C, ratio to control without chemical): 1.2 | The level of expressed mRNA in the presence of chemical substance/The level of expressed mRNA in the absence of chemical substance (yeast gene YNR069C): 1.5 | The level of expressed mRNA in the presence of chemical substance/in the absence of chemical substance (yeast gene YNR072W): 1.1 | The level of expressed mRNA in the presence of chemical substance/The level of expressed mRNA in the absence of chemical substance (yeast gene YOL013C): 0.9 | The level of expressed mRNA in the presence of chemical substance/ (yeast gene YOL032W, ratio to control without chemical): 1.3 | The level of expressed mRNA in the presence of chemical substance/ (yeast gene YOL036W, ratio to control without chemical): 0.8 | The level of expressed mRNA in the presence of chemical substance/ (yeast gene YOL047C, ratio to control without chemical): 1.4 | The level of expressed mRNA in the presence of chemical substance/ (yeast gene YOL071W, ratio to control without chemical): 1.3 | The level of expressed mRNA in the presence of chemical substance/ (yeast gene YOL082W, ratio to control without chemical): 1.0 | The level of expressed mRNA in the presence of chemical substance/ (yeast gene YOL083W, ratio to control without chemical): 1.1 | The level of expressed mRNA in the presence of chemical substance/in the absence of chemical substance (yeast gene YOL096C): 1.1 | The level of expressed mRNA in the presence of chemical substance/ (yeast gene YOL117W, ratio to control without chemical): 1.0 | The level of expressed mRNA in the presence of chemical substance/ (yeast gene YOL131W, ratio to control without chemical): 1.0 | The level of expressed mRNA in the presence of chemical substance/ (yeast gene YOL150C, ratio to control without chemical substance, 2 h culture): 4.1 | The level of expressed mRNA in the presence of chemical substance/ (yeast gene YOL162W, ratio to control without chemical): 2.0 | The level of expressed mRNA in the presence of chemical substance/The level of expressed mRNA in the absence of chemical substance (yeast gene YOL164W): 0.9 | The level of expressed mRNA in the presence of chemical substance/ (yeast gene YOR019W, ratio to control without chemical): 2.9 | The level of expressed mRNA in the presence of chemical substance/The level of expressed mRNA in the absence of chemical substance (yeast gene YOR036W): 1.8 | The level of expressed mRNA in the presence of chemical substance/The level of expressed mRNA in the absence of chemical substance (yeast gene YOR117W): 0.8 | The level of expressed mRNA in the presence of chemical substance/The level of expressed mRNA in the absence of chemical substance (yeast gene YOR124C): 0.6 | The level of expressed mRNA in the presence of chemical substance/The level of expressed mRNA in the absence of chemical substance (yeast gene YOR132W): 0.9 | The level of expressed mRNA in the presence of chemical substance/The level of expressed mRNA in the absence of chemical substance (yeast gene YOR157C): 1.0 | The level of expressed mRNA in the presence of chemical substance/in the absence of chemical substance (yeast gene YOR180C): 0.8 | The level of expressed mRNA in the presence of chemical substance/The level of expressed mRNA in the absence of chemical substance (yeast gene YOR181W): 1.0 | The level of expressed mRNA in the presence of chemical substance/The level of expressed mRNA in the absence of chemical substance (yeast gene YOR185C): 1.1 | The level of expressed mRNA in the presence of chemical substance/ (yeast gene YOR197W, ratio to control without chemical): 0.8 | The level of expressed mRNA in the presence of chemical substance/The level of expressed mRNA in the absence of chemical substance (yeast gene YOR198C): 1.0 | The level of expressed mRNA in the presence of chemical substance/The level of expressed mRNA in the absence of chemical substance (yeast gene YOR259C): 0.8 | The level of expressed mRNA in the presence of chemical substance/The level of expressed mRNA in the absence of chemical substance (yeast gene YOR261C): 1.0 | The level of expressed mRNA in the presence of chemical substance/The level of expressed mRNA in the absence of chemical substance (yeast gene YOR288C): 0.9 | The level of expressed mRNA in the presence of chemical substance/The level of expressed mRNA in the absence of chemical substance (yeast gene YOR355W): 0.7 | The level of expressed mRNA in the presence of chemical substance/in the absence of chemical substance (yeast gene YOR363C): 0.8 | The level of expressed mRNA in the presence of chemical substance/The level of expressed mRNA in the absence of chemical substance (yeast gene YOR383C): 0.9 | The level of expressed mRNA in the presence of chemical substance/ (yeast gene YPL087W, ratio to control without chemical): 1.0 | The level of expressed mRNA in the presence of chemical substance/The level of expressed mRNA in the absence of chemical substance (yeast gene YPL089C): 1.2 | The level of expressed mRNA in the presence of chemical substance/The level of expressed mRNA in the absence of chemical substance (yeast gene YPL109C): 1.1 | The level of expressed mRNA in the presence of chemical substance/The level of expressed mRNA in the absence of chemical substance (yeast gene YPL149W): 1.5 | The level of expressed mRNA in the presence of chemical substance/The level of expressed mRNA in the absence of chemical substance (yeast gene YPL154C): 0.7 | The level of expressed mRNA in the presence of chemical substance/ (yeast gene YPL196W, ratio to control without chemical): 1.3 | The level of expressed mRNA in the presence of chemical substance/ (yeast gene YPL206C, ratio to control without chemical): 1.0 | The level of expressed mRNA in the presence of chemical substance/ (yeast gene YPL222W, ratio to control without chemical): 0.9 | The level of expressed mRNA in the presence of chemical substance/ (yeast gene YPR023C, ratio to control without chemical): 1.2 | The level of expressed mRNA in the presence of chemical substance/The level of expressed mRNA in the absence of chemical substance (yeast gene YPR103W): 0.7 | The level of expressed mRNA in the presence of chemical substance/The level of expressed mRNA in the absence of chemical substance (yeast gene YPR108W): 0.8 | The level of expressed mRNA in the presence of chemical substance/ (yeast gene YPR151C, ratio to control without chemical): 2.3 | The level of expressed mRNA in the presence of chemical substance/in the absence of chemical substance (yeast gene YPR184W): 1.2
